Each structure is given as a SMILES string.

One data set deals with T1, Carbonic anhydrase 2 (Homo sapiens, UniProt P00918).
Assay: not given
Settings: not given
Regarding `Cl.NS(=O)(=O)c1cc2cc(C(=O)NCCN3CCOCC3)sc2s1`, the Ki (as a rule, the equilibrium dissociation constant of an inhibitor or competing ligand from its target) came out at 6.38 nM.

As for `COCCOCCN(CCOC)C(C)c1cc2cc(S(N)(=O)=O)sc2s1` (stereo not drawn), the affinity corresponds to a Ki of 1.54 nM.

`C[S+]([O-])CCNCc1cc2cc(S(N)(=O)=O)sc2s1.Cl` (stereo not drawn) gave a Ki of 5.5 nM.

`CC(C)CNCc1cc2cc(S(N)(=O)=O)sc2s1` had a Ki of 4.4 nM.

`NS(=O)(=O)c1cc2cc(CNCC3CC3)sc2s1` came in with a Ki of 6.7 nM.

Turning to `NS(=O)(=O)c1cc2cc(CN3CC[S+]([O-])CC3)sc2s1`, the Ki amounted to 3.4 nM.

`NS(=O)(=O)c1cc2cc(C(=O)N(CCO)CCO)sc2s1` yielded a Ki of 9 nM.

With `Cl.NS(=O)(=O)c1cc2cc(CNCCF)sc2s1`, the affinity corresponds to a Ki of 1.98 nM.

For `Cl.NS(=O)(=O)c1cc2cc(C(=O)NCCN3CCSCC3)sc2s1`, the Ki is 4.02 nM.

Turning to `NS(=O)(=O)c1cc2cc(C(=O)NCC(O)CO)sc2s1` (stereo not drawn), the Ki was 3.4 nM.

`Cl.NS(=O)(=O)c1cc2cc(CN(CCO)CCO)sc2s1` came in with a Ki of 2.6 nM.

`Cl.NS(=O)(=O)c1cc2cc(CN3CCSCC3)sc2s1` came in with a Ki of 0.44 nM.

On to `C[S+]([O-])CCNC(=O)c1cc2cc(S(N)(=O)=O)sc2s1` (stereo not drawn), for which the Ki is 2.39 nM.

In turn, `COCCOCCNC(C)c1cc2cc(S(N)(=O)=O)sc2s1.Cl` (stereo not drawn) registered a Ki of 3.05 nM.

Compound `COCCN(CCOC)Cc1cc2sc(S(N)(=O)=O)cc2s1.Cl` yielded a Ki of 0.95 nM.

In turn, `COCCN(CCOC)Cc1cc2cc(S(N)(=O)=O)sc2s1.Cl` had an inhibitory constant (Ki) of 1.34 nM.

`COCCOCCN(CCOC)Cc1cc2cc(S(N)(=O)=O)sc2s1.Cl` gave a Ki of 1.58 nM.

`COCCOCCN(CCOC)C(Cc1ccc(F)cc1)c1cc2cc(S(N)(=O)=O)sc2s1` (stereo not drawn) returned a Ki of 6.54 nM.

In turn, `Cl.NS(=O)(=O)c1cc2cc(CN3CCOCC3)sc2s1` came in with a Ki of 1.1 nM.

In the case of `CN(C)CCNC(=O)c1cc2cc(S(N)(=O)=O)sc2s1.Cl`, the Ki was 11 nM.

A further data set is filed under the species Oryctolagus cuniculus. Nature of the data set: Intraocular pressure studies in normotensive pigmented rabbits was performed. Also: test concentration or dose not given here. It counts as functional.
Settings: not given
As for `COCCN(CCOC)Cc1cc2cc(S(N)(=O)=O)sc2s1.Cl`, the IOP is reported as -4.1 mmHg.

Turning to `COCCOCCN(CCOC)Cc1cc2cc(S(N)(=O)=O)sc2s1.Cl`, the IOP was -4.8 mmHg.

Another data set is filed under the species Bos taurus.
Assay: not given
Settings: not given
As to `Cl.NS(=O)(=O)c1cc2cc(C(=O)NCCN3CCOCC3)sc2s1`, the Pigment binding was 91.6%.

Compound `C[S+]([O-])CCNCc1cc2cc(S(N)(=O)=O)sc2s1.Cl` (stereo not drawn) yielded a Pigment binding of 67.5%.

The compound `Cl.NS(=O)(=O)c1cc2cc(CNCCF)sc2s1` showed a Pigment binding of 81.9%.

For the compound `Cl.NS(=O)(=O)c1cc2cc(C(=O)NCCN3CCSCC3)sc2s1`, the Pigment binding is reported as 96.4%.

In the case of `NS(=O)(=O)c1cc2cc(C(=O)NCC(O)CO)sc2s1` (stereo not drawn), the Pigment binding amounted to 36.7%.

For the compound `Cl.NS(=O)(=O)c1cc2cc(CN(CCO)CCO)sc2s1`, the Pigment binding stood at 71.8%.

`Cl.NS(=O)(=O)c1cc2cc(CN3CCSCC3)sc2s1` came in with a Pigment binding of 69.9%.

The compound `C[S+]([O-])CCNC(=O)c1cc2cc(S(N)(=O)=O)sc2s1` (stereo not drawn) returned a Pigment binding of 35.6%.

The compound `COCCOCCNC(C)c1cc2cc(S(N)(=O)=O)sc2s1.Cl` (stereo not drawn) returned a Pigment binding of 71.9%.

The compound `COCCN(CCOC)Cc1cc2sc(S(N)(=O)=O)cc2s1.Cl` came in with a Pigment binding of 41.4%.

On to `COCCN(CCOC)Cc1cc2cc(S(N)(=O)=O)sc2s1.Cl`, for which the Pigment binding was determined as 50%.

`COCCOCCN(CCOC)Cc1cc2cc(S(N)(=O)=O)sc2s1.Cl` returned a Pigment binding of 38.5%.

Compound `Cl.NS(=O)(=O)c1cc2cc(CN3CCOCC3)sc2s1` had a Pigment binding of 42.9%.

Compound `CN(C)CCNC(=O)c1cc2cc(S(N)(=O)=O)sc2s1.Cl` displayed a Pigment binding of 97%.

A further data set has as its target T1, Carbonic anhydrase 2. Nature of the data set: The compound was tested for in vitro inhibitory activity against human carbonic anhydrase II. The settings on record: read-out: I50.
`COCCOCCNC(C)c1cc2cc(S(N)(=O)=O)sc2s1.Cl` (stereo not drawn): the IC50 was 0.7 nM.

In another data set the target is T1, Carbonic anhydrase 2.
Assay: not given
Settings: not given
This is another data set of the same source.
As for `Cl.NS(=O)(=O)c1cc2cc(C(=O)NCCN3CCOCC3)sc2s1`, the IC50 was found to be 2.9 nM.

On to `COCCOCCN(CCOC)C(C)c1cc2cc(S(N)(=O)=O)sc2s1` (stereo not drawn), for which the IC50 came to 0.5 nM.

`C[S+]([O-])CCNCc1cc2cc(S(N)(=O)=O)sc2s1.Cl` (stereo not drawn) had an IC50 of 8.4 nM.

Compound `CC(C)CNCc1cc2cc(S(N)(=O)=O)sc2s1` showed an IC50 of 2.5 nM.

On to `NS(=O)(=O)c1cc2cc(CNCC3CC3)sc2s1`, for which the IC50 amounted to 3.3 nM.

For the compound `NS(=O)(=O)c1cc2cc(CN3CC[S+]([O-])CC3)sc2s1`, the IC50 worked out at 4 nM.

`NS(=O)(=O)c1cc2cc(C(=O)N(CCO)CCO)sc2s1` returned an IC50 of 6.6 nM.

`Cl.NS(=O)(=O)c1cc2cc(CNCCF)sc2s1` registered an IC50 of 2.7 nM.

`Cl.NS(=O)(=O)c1cc2cc(C(=O)NCCN3CCSCC3)sc2s1`: the IC50 was 2.9 nM.

In turn, `NS(=O)(=O)c1cc2cc(C(=O)NCC(O)CO)sc2s1` (stereo not drawn) registered an IC50 of 3.2 nM.

The compound `Cl.NS(=O)(=O)c1cc2cc(CN(CCO)CCO)sc2s1` registered an IC50 of 2.27 nM.

Compound `Cl.NS(=O)(=O)c1cc2cc(CN3CCSCC3)sc2s1` yielded an IC50 of 2.6 nM.

`C[S+]([O-])CCNC(=O)c1cc2cc(S(N)(=O)=O)sc2s1` (stereo not drawn) registered an IC50 of 4.6 nM.

The compound `COCCN(CCOC)Cc1cc2sc(S(N)(=O)=O)cc2s1.Cl` displayed an IC50 of 2.5 nM.

`COCCN(CCOC)Cc1cc2cc(S(N)(=O)=O)sc2s1.Cl` displayed an IC50 of 4.2 nM.

Compound `COCCOCCN(CCOC)Cc1cc2cc(S(N)(=O)=O)sc2s1.Cl` registered an IC50 of 2.8 nM.

`COCCOCCN(CCOC)C(Cc1ccc(F)cc1)c1cc2cc(S(N)(=O)=O)sc2s1` (stereo not drawn) registered an IC50 of 1.15 nM.

`Cl.NS(=O)(=O)c1cc2cc(CN3CCOCC3)sc2s1` gave an IC50 of 3 nM.

For `CN(C)CCNC(=O)c1cc2cc(S(N)(=O)=O)sc2s1.Cl`, the IC50 was found to be 8.8 nM.

The next data set is filed under the species Oryctolagus cuniculus. Nature of the data set: Intraocular pressure studies were performed for the compound and compared with MK-927. Also: test concentration or dose not given here. It counts as functional.
Settings: not given
As to `COCCN(CCOC)Cc1cc2cc(S(N)(=O)=O)sc2s1.Cl`, the IOP is -4.6 mmHg.

Take `COCCOCCN(CCOC)Cc1cc2cc(S(N)(=O)=O)sc2s1.Cl`: the IOP is listed as -5.3 mmHg.

System in a further data set: not listed separately
Description: physchem.
Settings: not given
`Cl.NS(=O)(=O)c1cc2cc(C(=O)NCCN3CCOCC3)sc2s1`: the pKa (usually the pH at which an ionisable group is half protonated) was 5.8.

For the compound `C[S+]([O-])CCNCc1cc2cc(S(N)(=O)=O)sc2s1.Cl` (stereo not drawn), the pKa is 5.58.

Take `CC(C)CNCc1cc2cc(S(N)(=O)=O)sc2s1`: the pKa was 7.9.

`NS(=O)(=O)c1cc2cc(CNCC3CC3)sc2s1` returned a pKa of 7.72.

Turning to `NS(=O)(=O)c1cc2cc(CN3CC[S+]([O-])CC3)sc2s1`, the pKa was 4.23.

Consider `Cl.NS(=O)(=O)c1cc2cc(CNCCF)sc2s1`, for which the pKa amounted to 6.4.

With `Cl.NS(=O)(=O)c1cc2cc(C(=O)NCCN3CCSCC3)sc2s1`, the pKa worked out at 6.03.

Compound `Cl.NS(=O)(=O)c1cc2cc(CN(CCO)CCO)sc2s1` showed a pKa of 5.5.

As for `Cl.NS(=O)(=O)c1cc2cc(CN3CCSCC3)sc2s1`, the pKa came to 5.05.

Regarding `COCCOCCNC(C)c1cc2cc(S(N)(=O)=O)sc2s1.Cl` (stereo not drawn), the pKa is 7.13.

`COCCN(CCOC)Cc1cc2sc(S(N)(=O)=O)cc2s1.Cl` had a pKa of 5.48.

Consider `COCCN(CCOC)Cc1cc2cc(S(N)(=O)=O)sc2s1.Cl`, for which the pKa turned out to be 5.34.

In turn, `COCCOCCN(CCOC)Cc1cc2cc(S(N)(=O)=O)sc2s1.Cl` had a pKa of 5.55.

In turn, `Cl.NS(=O)(=O)c1cc2cc(CN3CCOCC3)sc2s1` showed a pKa of 5.25.

On to `CN(C)CCNC(=O)c1cc2cc(S(N)(=O)=O)sc2s1.Cl`, for which the pKa is 7.48.

System in a further data set: not listed separately
Description: physchem. The settings on record: octanol/water, pH 7.4.
Description: Partition coefficient (logD7.4)
With `Cl.NS(=O)(=O)c1cc2cc(C(=O)NCCN3CCOCC3)sc2s1`, the pH-dependent lipophilicity (logD) (commonly lipophilicity at a set pH, counting ionised and neutral species) was 0.587.

In the case of `C[S+]([O-])CCNCc1cc2cc(S(N)(=O)=O)sc2s1.Cl` (stereo not drawn), the logD is -0.444.

As to `CC(C)CNCc1cc2cc(S(N)(=O)=O)sc2s1`, the logD is 0.924.

In turn, `NS(=O)(=O)c1cc2cc(CNCC3CC3)sc2s1` showed a pH-dependent lipophilicity (logD) of 0.398.

Take `NS(=O)(=O)c1cc2cc(CN3CC[S+]([O-])CC3)sc2s1`: the logD is 0.111.

With `Cl.NS(=O)(=O)c1cc2cc(CNCCF)sc2s1`, the logD was 0.702.

On to `Cl.NS(=O)(=O)c1cc2cc(C(=O)NCCN3CCSCC3)sc2s1`, for which the logD is 1.5.

Regarding `NS(=O)(=O)c1cc2cc(C(=O)NCC(O)CO)sc2s1` (stereo not drawn), the logD is -0.347.

For `Cl.NS(=O)(=O)c1cc2cc(CN(CCO)CCO)sc2s1`, the logD was 0.23.

In turn, `Cl.NS(=O)(=O)c1cc2cc(CN3CCSCC3)sc2s1` showed a logD of 1.14.

For `C[S+]([O-])CCNC(=O)c1cc2cc(S(N)(=O)=O)sc2s1` (stereo not drawn), the logD was -0.155.

`COCCOCCNC(C)c1cc2cc(S(N)(=O)=O)sc2s1.Cl` (stereo not drawn) gave a logD of 0.708.

`COCCN(CCOC)Cc1cc2sc(S(N)(=O)=O)cc2s1.Cl` showed a logD of 1.56.

In turn, `COCCN(CCOC)Cc1cc2cc(S(N)(=O)=O)sc2s1.Cl` showed a logD of 1.58.

`COCCOCCN(CCOC)Cc1cc2cc(S(N)(=O)=O)sc2s1.Cl` showed a logD of 1.14.

For `Cl.NS(=O)(=O)c1cc2cc(CN3CCOCC3)sc2s1`, the logD is 1.17.

In the case of `CN(C)CCNC(=O)c1cc2cc(S(N)(=O)=O)sc2s1.Cl`, the logD was -0.398.

The species entered for the next data set is Oryctolagus cuniculus. Nature of the data set: Intraocular pressure studies in hypertensive pigmented rabbits was performed. Also: test concentration or dose not given here. It counts as functional.
Settings: not given
Regarding `COCCOCCN(CCOC)Cc1cc2cc(S(N)(=O)=O)sc2s1.Cl`, the IOP is given as -4.4 mmHg.

The species named for the next data set is Oryctolagus cuniculus. Nature of the data set: Intraocular pressure studies in normotensive albino rabbits was performed. Also: test concentration or dose not given here. Type of data set: functional.
Settings: not given
As for `COCCN(CCOC)Cc1cc2cc(S(N)(=O)=O)sc2s1.Cl`, the IOP is on record as -2.6 mmHg.

In the case of `COCCOCCN(CCOC)Cc1cc2cc(S(N)(=O)=O)sc2s1.Cl`, the IOP is on record as -3.3 mmHg.

Values taken from ChEMBL document CHEMBL1125927, “New isomeric classes of topically active ocular hypotensive carbonic anhydrase inhibitors: 5-substituted thieno[2,3-b]thiophene-2-sulfonamides and 5-substituted thieno[3,2-b]thiophene-2-sulfonamides” (J Med Chem, 1991).
